Measured values reported in patent US20210395650A1, “COMPOUNDS STABILIZING HYDROLASES IN LIQUIDS” (BASF SE, priority 2018, published 2021).

Target: T1, Savinase® 16.0L (Lederbergia lenta, UniProt P29600)
T1 construct: purchased Sigma-Aldrich
T1 sequence (P29600 1-269): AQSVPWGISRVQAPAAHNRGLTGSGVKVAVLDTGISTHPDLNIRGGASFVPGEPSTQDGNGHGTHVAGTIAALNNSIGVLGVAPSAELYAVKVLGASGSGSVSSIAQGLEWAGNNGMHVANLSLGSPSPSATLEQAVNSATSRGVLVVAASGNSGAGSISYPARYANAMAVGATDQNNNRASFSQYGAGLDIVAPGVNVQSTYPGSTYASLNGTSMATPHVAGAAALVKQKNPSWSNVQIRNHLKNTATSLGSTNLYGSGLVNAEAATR
Assay: Protease storage stability in liquid formulations at 37° C. (Suc-AAPF-pNA assay)
Format: biochemical
Conditions: 0.7 wt% Savinase 16.0 L
Procedure: The storage stability of protease was assessed at 37° C.
Base test formulations were manufactured by making base formulations I to V by mixing the components according to Table 1.
Protease used: Savinase® 16.0L (CAS-No. 9014-01-1, EC-No. 232-752-2) was purchased from Sigma-Aldrich.
The respective component (a) or comparative compound was added, if applicable, to the respective base formulation in amounts as indicated in Table 1.
The amount of protease as provided in Table 1 refers to active protein.
Water was added to accomplish the balance to 100.
Savinase activity at certain points in time as indicated in Table 2 was be determined by employing Succinyl-Ala-Ala-Pro-Phe-p-nitroanilide (Suc-AAPF-pNA, short AAPF) as substrate. pNA is cleaved from the substrate molecule by proteolytic cleavage, resulting in release of yellow color of free pNA which was determined by measuring OD405. Measurements were done at 20° C.
The proteolytic activity values provided in Table 3 were calculated referring to the 100% value determined in the reference formulation at the time 0.
The nomenclature of formulations is as follows: the Roman number before the full stop characterizes the base formulation, the Arabian number the type of compound (A. # compound according to invention (component (a)); (B. #) comparative compound).

[1] = base formulation I, 2.5 wt% compound, 3 d
[2] = base formulation I, 2.5 wt% compound, 7 d
[3] = base formulation I, 2.5 wt% compound, 14 d
[4] = base formulation I, 2.5 wt% compound, 21 d
[5] = base formulation I, 2.5 wt% compound, 28 d
[6] = base formulation I, 2.5 wt% compound, 35 d
[7] = base formulation II, 2.5 wt% compound, 3 d
[8] = base formulation II, 2.5 wt% compound, 7 d
[9] = base formulation II, 2.5 wt% compound, 14 d
[10] = base formulation II, 2.5 wt% compound, 21 d
[11] = base formulation II, 2.5 wt% compound, 28 d
[12] = base formulation II, 2.5 wt% compound, 35 d
[13] = base formulation II, 2.5 wt% compound, T0
[14] = base formulation III, 2.0 wt% compound, 3 d
[15] = base formulation III, 2.0 wt% compound, 7 d
[16] = base formulation III, 2.0 wt% compound, 14 d
[17] = base formulation III, 2.0 wt% compound, 21 d
[18] = base formulation III, 2.0 wt% compound, 28 d
[19] = base formulation III, 2.0 wt% compound, 35 d
[20] = base formulation III, 2.0 wt% compound, T0
[21] = base formulation I, 2.5 wt% compound, T0

| Compound | protease activity in the course of time of storage at 37° C. [1] [%] | protease activity in the course of time of storage at 37° C. [2] [%] | protease activity in the course of time of storage at 37° C. [3] [%] | protease activity in the course of time of storage at 37° C. [4] [%] | protease activity in the course of time of storage at 37° C. [5] [%] | protease activity in the course of time of storage at 37° C. [6] [%] | protease activity in the course of time of storage at 37° C. [7] [%] | protease activity in the course of time of storage at 37° C. [8] [%] | protease activity in the course of time of storage at 37° C. [9] [%] | protease activity in the course of time of storage at 37° C. [10] [%] | protease activity in the course of time of storage at 37° C. [11] [%] | protease activity in the course of time of storage at 37° C. [12] [%] | protease activity in the course of time of storage at 37° C. [13] [%] | protease activity in the course of time of storage at 37° C. [14] [%] | protease activity in the course of time of storage at 37° C. [15] [%] | protease activity in the course of time of storage at 37° C. [16] [%] | protease activity in the course of time of storage at 37° C. [17] [%] | protease activity in the course of time of storage at 37° C. [18] [%] | protease activity in the course of time of storage at 37° C. [19] [%] | protease activity in the course of time of storage at 37° C. [20] [%] | further results |
| --- | --- | --- | --- | --- | --- | --- | --- | --- | --- | --- | --- | --- | --- | --- | --- | --- | --- | --- | --- | --- | --- |
| CCCCOC(=O)CC(CC(=O)OCCCC)(OC(C)=O)C(=O)OCCCC [A.4, Acetyltributylcitrate] | 100 | 96 | 92 | 87 | 83 | 79 | – | – | – | – | – | – | – | – | – | – | – | – | – | – | – |
| CCOC(=O)CC(O)(CC(=O)O)C(=O)O (stereo not drawn) [A.6, Monoethylcitrate] | – | – | – | – | – | – | 102 | 100 | 95 | 92 | 87 | 83 | 101 | 96 | 92 | 86 | 82 | 79 | 76 | 99 | – |
| Diethylcitrate [A.7] | 95 | 91 | 85 | 81 | 76 | 69 | 98 | 96 | 94 | 90 | 87 | 83 | 98 | 96 | 93 | 84 | 83 | 76 | 72 | 100 | protease activity in the course of time of storage at 37° C. [21]: 100% |
| CCOC(=O)CC(O)(CC(=O)OCC)C(=O)OCC [A.1, Triethylcitrate] | 96 | 93 | 89 | 83 | 79 | 72 | 100 | 96 | 93 | 89 | 83 | 78 | 100 | 98 | 94 | 91 | 87 | 84 | 81 | 100 | protease activity in the course of time of storage at 37° C. [21]: 100%; protease activity in the course of time of storage at 37° C. (base formulation IV, 2.0 wt% compound, 3 d): 96%; protease activity in the course of time of storage at 37° C. (base formulation IV, 2.0 wt% compound, 7 d): 93%; protease activity in the course of time of storage at 37° C. (base formulation IV, 2.0 wt% compound, 14 d): 88%; protease activity in the course of time of storage at 37° C. (base formulation IV, 2.0 wt% compound, 21 d): 82%; protease activity in the course of time of storage at 37° C. (base formulation IV, 2.0 wt% compound, 28 d): 79%; protease activity in the course of time of storage at 37° C. (base formulation IV, 2.0 wt% compound, 35 d): 74%; protease activity in the course of time of storage at 37° C. (base formulation IV, 2.0 wt% compound, T0): 98%; protease activity in the course of time of storage at 37° C. (base formulation V, 2.0 wt% compound, 3 d): 94%; protease activity in the course of time of storage at 37° C. (base formulation V, 2.0 wt% compound, 7 d): 90%; protease activity in the course of time of storage at 37° C. (base formulation V, 2.0 wt% compound, 14 d): 86%; protease activity in the course of time of storage at 37° C. (base formulation V, 2.0 wt% compound, 21 d): 83%; protease activity in the course of time of storage at 37° C. (base formulation V, 2.0 wt% compound, 28 d): 79%; protease activity in the course of time of storage at 37° C. (base formulation V, 2.0 wt% compound, 35 d): 75%; protease activity in the course of time of storage at 37° C. (base formulation V, 2.0 wt% compound, T0): 97% |
| CCCOC(=O)CC(O)(CC(=O)OCCC)C(=O)OCCC [A.2, Tripropylcitrate] | 100 | 94 | 91 | 85 | 80 | 76 | – | – | – | – | – | – | – | 100 | 100 | 96 | 91 | 88 | 84 | 102 | protease activity in the course of time of storage at 37° C. [21]: 101% |
